Our source for the Ki and Ratio values is ChEMBL document CHEMBL1138013, “Parallel methods for the preparation and SAR exploration of N-ethyl-4-[(8-alkyl-8-aza-bicyclo[3.2.1]oct-3-ylidene)-aryl-methyl]-benzamides, powerful mu and delta opioid agonists” (Bioorg Med Chem Lett, 2004).

Test [1] in a line: Binding affinity against delta opioid receptor […]. The arrangement: species or system Mus musculus.
Test [2] concerns the target Mu-type opioid receptor (Mus musculus, UniProt P42866). As to the kind of experiment: Binding affinity against mu opioid receptor […].
For test [3], the target named is Mu-type opioid receptor (Mus musculus) (UniProt P42866). Put plainly: Ratio of binding affinity against mu to that of delta opioid receptor.

Molecules are shown by their SMILES.

Sequence of Mu-type opioid receptor (Mus musculus) (P42866 whole entry): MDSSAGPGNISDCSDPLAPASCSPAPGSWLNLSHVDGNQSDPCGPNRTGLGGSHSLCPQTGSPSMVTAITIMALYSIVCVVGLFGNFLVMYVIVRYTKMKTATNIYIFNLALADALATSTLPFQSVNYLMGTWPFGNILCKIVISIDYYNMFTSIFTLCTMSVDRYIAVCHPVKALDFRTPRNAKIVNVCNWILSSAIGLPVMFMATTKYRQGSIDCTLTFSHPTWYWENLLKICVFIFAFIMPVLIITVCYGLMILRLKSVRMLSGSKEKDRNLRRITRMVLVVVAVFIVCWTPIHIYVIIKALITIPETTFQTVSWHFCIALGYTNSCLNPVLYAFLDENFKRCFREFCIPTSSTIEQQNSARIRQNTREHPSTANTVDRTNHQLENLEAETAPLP
Sequence of Mu-type opioid receptor (P42866 whole entry): as above

`CCNC(=O)c1ccc(C(=C2CC3CCC(C2)N3Cc2ccoc2)c2cccc(N)c2)cc1`: the Ki (in general, a dissociation constant, usually derived from enzyme kinetics or from competition with a known ligand) in test [1] is 2 nM; in test [2], 2.6 nM. Further, in test [3], the Ratio came out at 1.3.
For the compound `CCNC(=O)c1ccc(C(C#N)=C2CC3CCC(C2)N3Cc2ccoc2)cc1`, the values for the Ki in test [1] and in test [2] were 0.3 nM and 1 nM, respectively. Also, the Ratio in test [3] is 3.3.
For `CCNC(=O)c1ccc(C(=C2CC3CCC(C2)N3Cc2ccoc2)c2ccc(N(C)C)cc2)cc1`, in that order: 8.7 nM, 51 nM and 5.9.
Regarding `C=C(C)CCN1C2CCC1CC(=C(c1ccc(C(=O)NCC)cc1)c1ccco1)C2`, the Ki was 5.6 nM in test [1] and 6.3 nM in test [2]. Also, the Ratio in test [3] came out at 1.1.
On to `CCNC(=O)c1ccc(C(=C2CC3CCC(C2)N3Cc2ccoc2)c2ccc(C(C)=O)cc2)cc1`, for which the figures for the Ki in test [1] and in test [2] were 0.33 nM and 1.7 nM, respectively. In addition, the Ratio in test [3] worked out at 5.2.
As for `C=C(C)CCN1C2CCC1CC(=C(c1ccc(C(=O)NCC)cc1)c1cccc(C(C)=O)c1)C2`, the Ki worked out at 1.8 nM in test [1] and 1.9 nM in test [2]. In test [3], the Ratio stood at 1.1.
As for `CCNC(=O)c1ccc(C(=C2CC3CCC(C2)N3Cc2cccc(C(=O)O)c2)c2ccccc2)cc1`, the Ki in test [1] is 280 nM; in test [2], 480 nM. Also, the Ratio in test [3] is 1.7.
In the case of `CCNC(=O)c1ccc(C(=C2CC3CCC(C2)N3Cc2ccoc2)c2cc(N)cc(C(=O)O)c2)cc1`, the Ki in test [1] turned out to be 56 nM; in test [2], 9100 nM. The Ratio in test [3] was determined as 160.
For `CCNC(=O)c1ccc(C(=C2CC3CCC(C2)N3Cc2ccoc2)c2ccncc2)cc1`, the Ki is 6 nM in test [1] and 2.2 nM in test [2]. Besides, in test [3], the Ratio was 0.37.
For `CCNC(=O)c1ccc(C(=C2CC3CCC(C2)N3Cc2ccoc2)c2cccnc2)cc1`, the Ki in test [1] worked out at 0.4 nM; in test [2], 1.2 nM. Further, the Ratio in test [3] was 3.
